Patent US12209072B2, “Cyclopentyl acids as LPA antagonists” (BRISTOL-MYERS SQUIBB COMPANY, priority 2018, dated 2025)

Each compound was assayed against T1, human LPA1 (Homo sapiens, UniProt Q92633) (assay: LPA1 functional antagonist assay (LPA-induced calcium flux)). Details: CHO cells overexpressing human LPA1; inhibition of calcium flux induced by 10 nM LPA; read-out: hLPA1 IC50.
T1 construct: expressed in transfected cells; host or cells: Chinese hamster ovary (CHO) cells
T1 sequence (Q92633 whole entry): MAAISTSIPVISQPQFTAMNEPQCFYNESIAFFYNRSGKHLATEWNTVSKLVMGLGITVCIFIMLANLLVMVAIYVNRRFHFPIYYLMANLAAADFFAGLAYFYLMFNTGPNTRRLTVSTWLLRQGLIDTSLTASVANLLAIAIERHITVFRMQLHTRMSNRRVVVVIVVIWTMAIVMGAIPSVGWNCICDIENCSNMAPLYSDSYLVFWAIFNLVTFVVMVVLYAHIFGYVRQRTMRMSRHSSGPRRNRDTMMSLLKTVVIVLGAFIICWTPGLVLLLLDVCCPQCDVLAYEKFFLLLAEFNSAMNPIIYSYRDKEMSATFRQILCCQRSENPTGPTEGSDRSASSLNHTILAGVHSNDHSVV
Assay type: cell-based
Protocol: The effectiveness of compounds of the present invention as LPA1 inhibitors can be determined in an LPA1 functional antagonist assay as follows:
Chinese hamster ovary cells overexpressing human LPA1 were plated overnight (15,000 cells/well) in poly-D-lysine coated 384-well microplates (Greiner bio-one, Cat #781946) in DMEM/F12 medium (Gibco, Cat #11039). Following overnight culture, cells were loaded with calcium indicator dye (AAT Bioquest Inc, Cat #34601) for 30 minutes at 37° C. The cells were then equilibrated to room temperature for 30 minutes before the assay. Test compounds solubilized in DMSO were transferred to 384 well non-binding surface plates (Corning, Cat #3575) using the Labcyte Echo acoustic dispense and diluted with assay buffer [1×HBSS with calcium/magnesium (Gibco Cat #14025-092), 20 mM HEPES (Gibco Cat #15630-080) and 0.1% fatty acid free BSA (Sigma Cat #A9205)] to a final concentration of 0.5% DMSO. Diluted compounds were added to the cells by FDSS6000 (Hamamatsu) at final concentrations ranging from 0.08 nM to 5 μM. and were then incubated for 20 min at room temperature at which time LPA (Avanti Polar Lipids Cat #857130C) was added at final concentrations of 10 nM to stimulate the cells. The compound IC50 value was defined as the concentration of test compound which inhibited 50% of the calcium flux induced by LPA alone. IC50 values were determined by fitting data to a 4-parameter logistic equation (GraphPad Prism, San Diego CA).
`Cc1nc(-c2nnn(C)c2CNc2noc(CC3CC3)n2)ccc1O[C@H]1CC[C@H](CC(=O)O)C1` (racemic) [Example 82, (±)-trans-2-[3-({6-[5-({[5-(cyclopropyl-methyl)-1,2,4-oxadiazol-3-yl]amino}methyl)-1-methyl-1H-1,2,3-triazol-4-yl]-2-methylpyridin-3-yl}oxy)cyclo-pentyl]acetic acid] was tested, and the IC50 was 0.572 µM.
In the case of `Cc1nc(-c2nnn(C)c2CNC(=O)OCc2ccccc2)ccc1O[C@@H]1CC[C@@H](C(=O)O)C1` (racemic) [Example 20, (±)-trans-3-((6-(5-((((benzyloxy)carbonyl)amino)methyl)-1-methyl-1H-1,2,3-triazol-4-yl)-2-methyl-pyridin-3-yl)oxy)cyclopentane carboxylic acid], the IC50 is reported as 0.0397 µM.
For `Cc1nc(-c2nnn(C)c2COC(=O)N(C)CC(C)C)ccc1O[C@H]1CC[C@H](CC(=O)O)C1` (racemic) [Example 55, (±)-trans-2-[3-({2-methyl-6-[1-methyl-5-({[methyl(2-methylpropyl)carbamoyl]oxy}methyl)-1H-1,2,3-triazol-4-yl]pyridin-3-yl}oxy)cyclo-pentyl]acetic acid], the IC50 was 0.135 µM.
`Cc1nc(-c2nnn(C)c2COC(=O)N(C)C2CCCC2)c(F)cc1O[C@H]1CC[C@H](CC(=O)O)C1` (racemic) [Example 69, (±)-trans-2-[3-({6-[5-({[cyclopentyl(methyl)carbamoyl]oxy}methyl)-1-methyl-1H-1,2,3-triazol-4-yl]-5-fluoro-2-methylpyridin-3-yl}oxy)cyclopentyl]acetic acid] was tested, and the IC50 was 0.21 µM.
`Cc1noc(-c2ccc(O[C@H]3CC[C@@H](C(=O)O)C3)cc2)c1NC(=O)O[C@H](C)c1ccccc1` (single isomer, unassigned) [Example 1] was tested, and the IC50 was 0.104 µM.
With `Cc1nc(-c2nnn(C)c2COC(=O)N2CCC3(CCC3)C2)ccc1O[C@H]1CC[C@H](CC(=O)O)C1` (racemic) [Example 61, (±)-trans-2-[3-({6-[5-({6-azaspiro[3.4]octane-6-carbonyloxy}methyl)-1-methyl-1H-1,2,3-triazol-4-yl]-2-methylpyridin-3-yl}oxy)cyclopentyl]acetic acid] the IC50 was 0.444 µM.
For `CN(C(=O)OCc1c(-c2ccc(O[C@H]3CC[C@@H](C(=O)O)C3)cc2)nnn1C)C1CCCC1` (relative stereo) [Example 11, Cis-3-(4-(5-(((cyclopentyl(methyl)carbamoyl)oxy)methyl)-1-methyl-1H-1,2,3-triazol-4-yl)phenoxy)cyclo-pentane-1-carboxylic acid], the IC50 was 0.386 µM.
`Cc1nc(-c2nnn(C)c2COC(=O)N(C)CC2CCC2)cnc1O[C@H]1CC[C@H](CC(=O)O)C1` (single isomer, unassigned) [Example 28, 2-(trans-3-((5-(5-((((cyclobutylmethyl)(methyl)carbamoyl)oxy)methyl)-1-methyl-1H-1,2,3-triazol-4-yl)-3-methylpyrazin-2-yl)oxy)cyclopentyl)acetic Acid] showed an IC50 of 3.75 µM.
In the case of `CCCC1(COC(=O)NCc2c(-c3ccc(O[C@@H]4CC[C@@H](CC(=O)O)C4)c(C)n3)nnn2C)CC1` (racemic) [Example 9, (±)-Trans-2-(3-((2-methyl-6-(1-methyl-5-(((((1-propylcyclopropyl)methoxy)carbonyl)amino)methyl)-1H-1,2,3-triazol-4-yl)pyridin-3-yl)oxy)cyclopentyl)acetic Acid], the IC50 is reported as 0.111 µM.
`Cc1nc(-c2nnn(C)c2COC(=O)N(C)C2CCC2)ccc1O[C@H]1CC[C@H](CC(=O)O)C1` (racemic) [Example 63, (±)-trans-2-[3-({6-[5-({[cyclobutylmethyl-1H-1,2,3-triazol-4-yl]-2-(methyl)carbamoyl]oxy}methyl)-1-methylpyridin-3-yl}oxy)cyclopentyl]acetic acid] showed an IC50 of 0.096 µM.
In the case of `Cc1noc(-c2ccc(OC[C@@H]3CC[C@H](C(=O)O)C3)cn2)c1CNc1nccc(-c2ccccn2)n1` (relative stereo) [Example 33, cis-3-(((6-(3-methyl-4-(((4-(pyridin-2-yl)pyrimidin-2-yl)amino)methyl)isoxazol-5-yl)pyridin-3-yl)oxy)methyl)cyclopentane-1-carboxylic acid], the IC50 is reported as 0.04 µM.
In the case of `Cc1nc(-c2onc(C)c2COC(=O)N(C)C2CCCC2)ccc1O[C@H]1CC[C@H](C(C)C(=O)O)C1` (mixture of isomers) [Example 50, (±)-trans-2-[3-({6-[4-({[cyclopentyl(methyl)carbamoyl]oxy}methyl)-3-methyl-1,2-oxazol-5-yl]-2-methyl-pyridin-3-yl}oxy)cyclopentyl]propanoic acid], the IC50 is reported as 0.02 µM.
For `Cc1noc(-c2ccc(OC3CCC(C(=O)O)C3)cn2)c1CNc1nccc(-c2ccccc2)n1` (single isomer, unassigned) [Example 46], the IC50 was 0.056 µM.
Work on `CN(CC1CCC1)C(=O)OCc1c(-c2ccc(O[C@@H]3CC[C@@H](C(=O)O)C3)cn2)nnn1C` (racemic) [Example 25, (±)-trans-3-((6-(5-((((cyclobutyl-methyl)(methyl)carbamoyl)oxy)methyl)-1-methyl-1H-1,2,3-triazol-4-yl)pyridin-3-yl)oxy)cyclopentane carboxylic acid] yielded an IC50 of 0.354 µM.
Compound `CCCCN(C)C(=O)OCc1c(-c2ccc(O[C@H]3CC[C@H](CC(=O)O)C3)c(C)n2)nnn1C` (single isomer, unassigned) [Example 4, (±)-Trans-2-(3-((6-(5-(((butyl(methyl)carbamoyl)oxy)methyl)-1-methyl-1H-1,2,3-triazol-4-yl)-2-methylpyridin-3-yl)oxy)cyclopentyl)acetic Acid] has an IC50 of 0.015 µM.
`Cc1nc(-c2nnn(C)c2COC(=O)N(C)C2CCCC2)ccc1O[C@H]1CC[C@H](CC(=O)O)C1` (racemic) [Example 56, (±)-trans-2-[3-({6-[5-({[cyclopentyl(methyl)carbamoyl]oxy}methyl)-1-methyl-1H-1,2,3-triazol-4-yl]-2-methylpyridin-3-yl}oxy)cyclopentyl]acetic acid] was tested, and the IC50 was 0.089 µM.
For `CCCC1(COC(=O)NCc2c(-c3ccc(O[C@H]4CC[C@H](CC(=O)O)C4)c(C)n3)nnn2C)CCC1` (racemic) [Example 62, (±)-trans-2-[3-[(2-methyl-6-{1-methyl-5-[({[(1-propylcyclobutyl)methoxy]carbonyl}amino)methyl]-1H-1,2,3-triazol-4-yl}pyridin-3-yl)oxy]cyclo-pentyl]acetic acid], the IC50 was 0.183 µM.
`Cc1noc(-c2ccc(OC3CCC(C(=O)O)C3)cn2)c1CNc1nccc(-c2ccccc2)n1` (centres unmarked) [Example 42, 3-((6-(3-methyl-4-(((4-phenylpyrimidin-2-yl)amino)methyl)isoxazol-5-yl)pyridin-3-yl)oxy)cyclopentane-1-carboxylic Acid] was tested, and the IC50 was 0.026 µM.
For `Cc1nc(-c2nnn(C)c2COC(=O)N(C)CC2CCCC2)cnc1O[C@@H]1CC[C@@H](C(=O)O)C1` (racemic) [Example 14, (±)-trans-3-((5-(5-((((cyclo-pentylmethyl)(methyl)carbamoyl)oxy)methyl)-1-methyl-1H-1,2,3-triazol-4-yl)-3-methylpyrazin-2-yl)oxy) cyclopentanecarboxylic Acid], the IC50 was 0.184 µM.
For `Cc1noc(-c2ccc(O[C@H]3CC[C@@H](C(=O)O)C3)cc2)c1COC(=O)N(C)CCC(C)C` (racemic) [Example 73, (±)-cis-3-{4-[3-methyl-4-({[methyl(3-methylbutyl)carbamoyl]oxy}methyl)-1,2-oxazol-5-yl]phenoxy}cyclo-pentane-1-carboxylic acid], the IC50 was 1.18 µM.
